Assay results published in patent US20250099622A1, “COMPOSITIONS AND METHODS FOR EXPRESSING THERAPEUTICS” (priority 2022, published 2025).
“Also recorded” adds a separate entry of the source.

Assays:
[1] = test system: NIH3T3 cells (cGMP secreted); assay: EC50 for CNP-Fc constructs, cGMP ELISA of NIH3T3 supernatant; assay type: cell-based; details: NIH3T3, 30 minutes, 1.8 mM IBMX, cGMP secreted by the cells; FIG. 25B
Description: EC50 for CNP-Fc described herein were measured by ELISA. 2.5E+05 NIH3T3 cells/well were plated. […] After 30 minutes, supernatant was collected for cGMP determined via ELISA. FIG. 25A illustrates a standard curve of cGMP.

[2] = background statement; cited from earlier work
Human NPR-B = molecular target: T1, Human NPR-B (Homo sapiens, UniProt P20594); assay: Biacore SPR kinetic affinity binding to immobilized NPR-B
T1 construct: purchased R&D system
T1 sequence (P20594 23-458 limits assumed): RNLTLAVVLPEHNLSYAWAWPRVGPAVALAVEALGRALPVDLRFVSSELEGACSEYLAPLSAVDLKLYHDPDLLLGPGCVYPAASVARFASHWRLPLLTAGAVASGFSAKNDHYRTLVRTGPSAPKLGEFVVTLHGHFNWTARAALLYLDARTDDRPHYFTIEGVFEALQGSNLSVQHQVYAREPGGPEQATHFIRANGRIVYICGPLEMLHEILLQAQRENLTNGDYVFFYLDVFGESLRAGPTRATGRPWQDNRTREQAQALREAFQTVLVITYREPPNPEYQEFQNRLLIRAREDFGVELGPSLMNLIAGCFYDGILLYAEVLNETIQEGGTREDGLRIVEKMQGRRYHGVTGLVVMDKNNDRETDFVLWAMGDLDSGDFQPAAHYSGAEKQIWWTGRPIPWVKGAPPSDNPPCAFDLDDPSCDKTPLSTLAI
Description: The biological function of these purified protein was assayed for their stimulation of production of cGMP, using NPR-B receptor positive cell line, NIH/3T3 and NPR-B negative cell line HEK293 cells. The determination of cGMP was assay by ELISA using commercial CNP as standard curves. […] Surface preparation. NBR-B was immobilized at different levels in three flow cells via standard amine coupling, leaving Fc 1 unmodified to serve as a reference. All surface plasmon resonance (SPR) analysis was performed on a BIAcore 3000 system using series CM5 sensor chips. Data processing and analysis were performed using BIAevaluation software. All sensorgrams were double referenced by subtracting the response on a reference flow cell and a blank sample. Human NPR-B (R&D system) was covalently attached to a CM5 chip via amine coupling. A surface density of 6600 RU was used for measurements with natriuretic peptides Sequential injections of CNP (0.5-8 nM) were performed at a flow rate of […] (300 s for each), followed by a dissociation time of 900 s. […] Kinetic parameters were calculated assuming a simple 1:1 (Langmuir) binding. […] All SPR analysis was performed on a BIAcore 3000 system using series CM5 sensor chips. Data processing and analysis were performed using BIAevaluation software. All sensorgrams were double referenced by subtracting the response on a reference flow cell and a blank sample. Human NPR-B (R&D system) was covalently attached to a CM5 chip via amine coupling. A surface density of 3100 RU was used for measurements with natriuretic peptides Sequential injections of AMI263 (FC4-CNP) (0.125-2 nM) were performed at a flow rate of […] (300 s for each), followed by a dissociation time of 900 s. […] Kinetic parameters were calculated assuming a simple 1:1 (Langmuir) binding. […] All SPR analysis was performed on a BIAcore 3000 system using series CM5 sensor chips. Data processing and analysis were performed using BIAevaluation software. All sensorgrams were double referenced by subtracting the response on a reference flow cell and a blank sample. Human NPR-B (R&D system) was covalently attached to a CM5 chip via amine coupling. […] Kinetic parameters were calculated assuming a simple 1:1 (Langmuir) binding. […] All SPR analysis was performed on a BIAcore 3000 system using series CM5 sensor chips. Data processing and analysis were performed using BIAevaluation software. All sensorgrams were double referenced by subtracting the response on a reference flow cell and a blank sample. Human NPR-B (R&D system) was covalently attached to a CM5 chip via amine coupling. A surface density of 3100 RU was used for measurements with natriuretic peptides Sequential injections of AMI263 (FC4-CNP) (0.5-300 nM) were performed at a flow rate of […] (300 s for each), followed by a dissociation time of 900 s. […] Kinetic parameters were calculated assuming a simple 1:1 (Langmuir) binding. […] All SPR analysis was performed on a BIAcore 3000 system using series CM5 sensor chips. Data processing and analysis were performed using BIAevaluation software. All sensorgrams were double referenced by subtracting the response on a reference flow cell and a blank sample. Human NPR-B (R&D system) was covalently attached to a CM5 chip via amine coupling.

[3] = test system: TUJ-1+ and cone arrestin+ cells; assay: NMDA excitotoxicity mouse model: immunohistochemistry (TUJ-1, cone arrestin); assay type: in vivo, C57BL/6); details: Groups 1 and 2, Day 7, qualitative
Description: All eyes designated for immunohistochemistry (IHC) were enucleated, the approximate site of injection was marked, and eyes were fixed at 4° C. in 4% paraformaldehyde in separately labeled vials overnight. Eyes were then transferred into 0.1M phosphate buffer (PB), brought through a sequential sucrose gradient (10-30%, 1 hour each) followed by embedding in OCT medium and freezing on dry ice.
Negative controls were performed for the staining cocktail by utilizing only the secondary antibody. Five slides spanning the retina for each eye were stained. Two pictures per retinal cross-section—one at or near the injection site and one from a central region—were taken using an Olympus Bx63 upright fluorescent microscope and cellSens software. […] All groups had clear cone arrestin staining with some TUJ-1+ cells observed (FIG. 12B). No further staining or analysis was performed on cross-sections as the staining was not an informative endpoint.

[4] = test system: retinal ganglion cells (RGC); assay: NMDA excitotoxicity mouse model: RGC count by retinal Flatmount; assay type: in vivo, C57BL/6)
Description: This study was for evaluating the effect of adeno-associated viral (AAV) vectors on retinal ganglion cell protection following damage caused via N-methyl-D-aspartate (NMDA) administration in the mouse. […] Groups 7 and 8 were added to test a higher concentration of MK-801. […] This study was conducted in wild type mice (Mus musculus, C57BL/6).
300 μL of the 5 mM NMDA stock was combined with 300 μL of sterile PBS and 1 μL as injected on Day 0 for a final concentration of 2.5 mM NMDA.
300 μL of the 5 mM NMDA stock as combined with 300 μL of sterile-filtered MK-801 and 1 μL was injected on Day 0 for a final concentration of 2.5 mM NMDA/100 μM MK-801.
300 μL of the 5 mM NMDA stock was combined with 300 μL of sterile PBS and 1 μL was injected on Day 0 for a final concentration of 2.5 mM NMDA.
On Day −28 or Day 0 based on the experimental design, mice were given buprenorphine 0.01-0.05 mg/kg subcutaneously (SQ). Animals were then tranquilized for the intravitreal injections with ketamine/xylazine or inhaled isoflurane and one drop of 0.5% proparacaine HCl was applied to both eyes. The conjunctiva was gently grasped with Dumont #4 forceps, and the injection was made using a 33 G needle and a Hamilton syringe. After dispensing the syringe contents, the syringe needle was slowly withdrawn. Following the injection procedure, 1 drop of Ofloxacin ophthalmic solution was applied topically to the ocular surface with eye lube.
Eyes were enucleated and immediately fixed in 4% paraformaldehyde in phosphate-buffered saline (PBS) and stored overnight at 4° C. The following day, the eyes were transferred to cold immunocytochemistry (ICC) buffer (PBS containing 0.5% BSA and 0.2% Tween 20) until processing. Using a dissecting microscope, the eye was carefully trimmed of extraneous tissue at the limbus and, using fine curved scissors, the anterior chamber was removed. Retinas in the eye cup were rinsed with cold ICC buffer. Eye cups were placed in cold ICC buffer containing 1/100 rat anti-CNP36 (Groups 3-6 only; resuspended at 0.5 mg/mL in PBS) for 3 hours at 4° C. Eye cups were then washed extensively and stained with 1/200 donkey anti-rat Cy3 and 1/1,000 DAPI for 2-3 hours at 4° C. Groups 1 and 2 were stained with 1/500 TUJ-1 and 1/1000 DAPI, while Groups 7 and 8 were incubated with 1/1,000 DAPI alone. Eye cups were washed extensively but gently with cold ICC buffer. Using fine curved scissors and an eyelash knife, the retina was detached from the optic nerve head and removed from the RPE/choroid. Radial cuts were then made toward the center and retinas were flat mounted, covered, and sealed. 2D fluorescent microscopy images were acquired using an Olympus Bx63 upright fluorescent microscope. […] Images at 20× were acquired in 4 quadrants and a central 248.1×325.7 μm region was analyzed for RGC counts using Olympus cellSens and ImageJ software.
Groups 1 and 2 were stained with DAPI and TUJ-1 and images were captured at 20× (FIG. 10A). RGCs were counted in four quadrants, and cells/mm2 were averaged across each group.
Groups 3-8 were stained for DAPI and four images were captured for each retina at 20× approximately 600 μm from the optic nerve head. RGCs were counted in a central 248.1×325.7 μm region and cells/mm2 were averaged over each group (FIG. 10C).
The statistical analyses were performed on the Group 3-8 RGC data (one-way ANOVA followed by multiple comparisons using the Dunnett statistical hypothesis comparison).

[5] = test system: retinal ganglion cells (RGC); assay: NMDA excitotoxicity mouse model: RGC count by H&E histopathology; assay type: in vivo, C57BL/6); details: for RGC #/HPF (400X): H&E, single animals, Group 2
Description: This study was for evaluating the effect of adeno-associated viral (AAV) vectors on retinal ganglion cell protection following damage caused via N-methyl-D-aspartate (NMDA) administration in the mouse. Injection volumes and treatment options can be found in Table 18. Groups 7 and 8 were added to test a higher concentration of MK-801. The tissues for bioanalysis were snap frozen whole instead of being homogenized. The methods of adding IBMX to whole blood were established and clarified. This study was conducted in wild type mice (Mus musculus, C57BL/6).
Following euthanasia, eyes of elected animals were processed for histological or immunological examination. The ODs of animal 519 (Group 5) and 629 (Group 6) were noted to have a very small lens, blood in the retina, and the eye was filled with a gel-like substance. […] For Groups 1 and 2, immediately following euthanasia, selected eyes were collected into 10% neutral buffered formalin. The eyes were placed in 70% ethanol the following day. The eyes were then processed to paraffin blocks for sectioning. Sagittal sections of each eye (5 μm thickness) were prepared for all animals. At least 3 slides containing a ribbon of approximately 5 sections were collected sequentially. The optic nerve was included in the sectioning. The slides were stained for hematoxylin and eosin (H&E) and examined using light microscopy. Retinal ganglion cells (RGC) were counted (Table 19 and FIG. 9C).

| SMILES | EC50 values (rank order) [1] | half-life [2] | ka (Human NPR-B; (FIG. 7C-7I)) | kd (Human NPR-B; (FIG. 7C-7I)) | ka (Human NPR-B; Table 32 summary of affinity) | kd (Human NPR-B; Table 32 summary of affinity) | number of TUJ-1+ and cone arrestin+ cells between groups [3] | RGC protection by positive control ([4]; 100 μM MK-801) | RGC count, retinal Flatmount (Groups 1 and 2) ([4]; Group 2 ODs, NMDA + MK-801 co-injection IVT Day 0, DAPI and TUJ-1) | RGC count, retinal Flatmount (Groups 3-8) ([4]; Group 8 ODs, NMDA + 100 μM MK-801 co-injection IVT Day 0, DAPI) | P, RGC count NMDA+MK-801-treated (Group 8) versus NMDA-treated (Group 7 OD) eyes ([4]; one-way ANOVA, Dunnett, MK-801 100 μM) | mean RGC count, Group 2 versus Group 1 ([5]; H&E histopathology, ODs and OSs) | RGC #/HPF (400X) ([5]; L eye (OS, control eye, no NMDA)) | RGC #/HPF (400X) ([5]; R eye (OD, experimental eye: NMDA + MK-801)) |
| --- | --- | --- | --- | --- | --- | --- | --- | --- | --- | --- | --- | --- | --- | --- |
| CC[C@H](C)[C@@H]1NC(=O)[C@H](CCCNC(=N)N)NC(=O)[C@H](CC(=O)O)NC(=O)[C@H](CC(C)C)NC(=O)[C@H](CCCCN)NC(=O)[C@H](CC(C)C)NC(=O)CNC(=O)[C@H](Cc2ccccc2)NC(=O)[C@@H](NC(=O)CNC(=O)[C@H](CCCCN)NC(=O)[C@H](CO)NC(=O)[C@H](CC(C)C)NC(=O)CN)CSSC[C@@H](C(=O)O)NC(=O)CNC(=O)[C@H](CC(C)C)NC(=O)CNC(=O)[C@H](CO)NC(=O)[C@H](CCSC)NC(=O)[C@H](CO)NC(=O)CNC1=O [CNP-22, reference compound] | CNP-22 ≡Fc4-CNP36>Aflibercept-Fc4-CNP36>Fc1-CNP36>>Fc4-CNP22 | only a few minutes | 1.31e7 | 4.74E-4 | 1.37E+07 | 4.74E−04 | – | – | – | – | – | – | – | – |
| C[C@]12N[C@H](Cc3ccccc31)c1ccccc12 [MK-801] | – | – | – | – | – | – | did not appear to be a difference | fully rescued the NMDA RGC loss phenotype | 9,000±500 cells/mm2 | 12,000±300 cells/mm2 | < 0.0001 | no differences in the mean RGC count | RGC #/HPF (400X) = 37; also recorded: RGC #/HPF (400X) = 35; also recorded: RGC #/HPF (400X) = 55; also recorded: RGC #/HPF (400X) = 38 | RGC #/HPF (400X) = 41; also recorded: RGC #/HPF (400X) = 31 |
